Converted amounts (≈) assume the structure as drawn.
What was measured:
[1] = system: Staphylococcus aureus 209 p; experiment: MIC, agar dilution, nutrient agar medium; assay type: cell-based
[2] = system: Bacillus subtilis PCI 219; experiment: MIC, agar dilution, nutrient agar medium; assay type: cell-based; details: PCI219
[3] = system: Streptococcus pyogenes IFO 3340; experiment: MIC, agar dilution, nutrient agar medium; assay type: cell-based; details: IFO3340
[4] = system: Micrococcus luteus PCI 1001; experiment: MIC, agar dilution, nutrient agar medium; assay type: cell-based; details: PCI1001
[5] = system: Corynebacterium faciens IAM 1079; experiment: MIC, agar dilution, nutrient agar medium; assay type: cell-based; details: IAM1079
[6] = system: Corynebacterium equi IFO 3730; experiment: MIC, agar dilution, nutrient agar medium; assay type: cell-based; details: Rhodococcus (subgen. Prescottella) equi, IFO3730
[7] = system: Micrococcus lysodeikticus; experiment: MIC, agar dilution, nutrient agar medium; assay type: cell-based; details: Micrococcus luteus
[8] = system: Mycobacterium avium IFO 3082; experiment: MIC, agar dilution, nutrient agar medium; assay type: cell-based; details: IFO3082
[9] = system: Escherichia coli K-12 IAM 1264; experiment: MIC, agar dilution, nutrient agar medium; assay type: cell-based; details: IAM1264
[10] = system: Klebsiella pneumoniae IFO 12015; experiment: MIC, agar dilution, nutrient agar medium; assay type: cell-based; details: IFO12015
[11] = system: Citrobacter freundii IFO 12681; experiment: MIC, agar dilution, nutrient agar medium; assay type: cell-based; details: IFO12681
[12] = system: Proteus vulgaris IFO 3167; experiment: MIC, agar dilution, nutrient agar medium; assay type: cell-based; details: IFO3167
[13] = system: Proteus mirabilis IFO 3849; experiment: MIC, agar dilution, nutrient agar medium; assay type: cell-based; details: IFO3849
[14] = system: Proteus morganii IFO 3168; experiment: MIC, agar dilution, nutrient agar medium; assay type: cell-based; details: Morganella morganii, IFO3168
[15] = system: Proteus inconstans IFO 12930; experiment: MIC, agar dilution, nutrient agar medium; assay type: cell-based; details: Providencia alcalifaciens, IFO12930
[16] = system: Pseudomonas aeruginosa IFO 3080; experiment: MIC, agar dilution, nutrient agar medium; assay type: cell-based; details: IFO3080
[17] = system: Pseudomonas fluorescens IFO 3903; experiment: MIC, agar dilution, nutrient agar medium; assay type: cell-based; details: IFO3903
Pseudomonas putida T-2 = experiment: MIC, agar dilution, nutrient agar medium; assay type: cell-based; details: T2
Pseudomonas ovalis = experiment: MIC, agar dilution, nutrient agar medium; assay type: cell-based; details: Pseudomonas putida
[18] = system: Vibrio-metshnikov IAM 1039; experiment: MIC, agar dilution, nutrient agar medium; assay type: cell-based
[19] = system: Vibrio tyrogenes IAM 1080; experiment: MIC, agar dilution, nutrient agar medium; assay type: cell-based; details: IAM1080
[20] = system: Salmonella abortusequi ATCC 9842; experiment: MIC, agar dilution, nutrient agar medium; assay type: cell-based; details: Salmonella enterica, ATCC9842
Salmonella anatum 1 = experiment: MIC, agar dilution, nutrient agar medium; assay type: cell-based; details: Salmonella enterica
[21] = system: Aerobacter aerogenes ATCC 8724; experiment: MIC, agar dilution, nutrient agar medium; assay type: cell-based; details: Klebsiella aerogenes, ATCC8724
Erwinia aroidae IAM 1068 = experiment: MIC, agar dilution, nutrient agar medium; assay type: cell-based; details: IAM1068
[22] = system: Xanthomonas oryzae IAM 1657; experiment: microbe, parasite or virus in culture; assay type: cell-based; details: IAM1657
[23] = system: Serratia marcescens IAM 1065; experiment: MIC, agar dilution, nutrient agar medium; assay type: cell-based; details: IAM1065
[24] = system: Aspergillus niger IFO 6342; experiment: MIC, agar dilution, nutrient agar medium; assay type: cell-based; details: IFO6342
[25] = system: Aspergillus fumigatus IAM 2155; experiment: MIC, agar dilution, nutrient agar medium; assay type: cell-based; details: IAM2155
[26] = system: Aspergillus oryzae IAM 2732; experiment: MIC, agar dilution, nutrient agar medium; assay type: cell-based; details: IAM2732
[27] = system: Penicillium funiculosum IFO 6345; experiment: MIC, agar dilution, nutrient agar medium; assay type: cell-based; details: Talaromyces funiculosus, IFO6345
Saccharomyces cerevisiae = experiment: MIC, agar dilution, nutrient agar medium; assay type: cell-based
[28] = system: Candida albicans IAM 4905; experiment: MIC, agar dilution, nutrient agar medium; assay type: cell-based; details: IAM4905
[29] = system: Trichophyton rubrum IFO 5467; experiment: MIC, agar dilution, nutrient agar medium; assay type: cell-based; details: IFO5467
[30] = system: Trichophyton interdigitale; experiment: MIC, agar dilution, nutrient agar medium; assay type: cell-based
[31] = system: Epidermophyton floccosum IFO 9045; experiment: MIC, agar dilution, nutrient agar medium; assay type: cell-based; details: IFO9045
[32] = system: Microsporum gypseum IFO 5948; experiment: MIC, agar dilution, nutrient agar medium; assay type: cell-based; details: Nannizzia gypsea, IFO5948
Bacteroides fragilis = experiment: MIC, agar dilution, nutrient agar medium; assay type: cell-based
Eubacterium aerofaciens = experiment: MIC, agar dilution, nutrient agar medium; assay type: cell-based; details: Collinsella aerofaciens
Peptococcus aerogenes = experiment: MIC, agar dilution, nutrient agar medium; assay type: cell-based; details: Peptoniphilus asaccharolyticus
[33] = system: Peptostreptococcus micros; experiment: MIC, agar dilution, nutrient agar medium; assay type: cell-based; details: Parvimonas micra
[34] = system: Peptostreptococcus parvulus; experiment: MIC, agar dilution, nutrient agar medium; assay type: cell-based; details: Lancefieldella parvula
[35] = system: Bifidobacterium adolescentis; experiment: MIC, agar dilution, nutrient agar medium; assay type: cell-based
[36] = system: Fusobacterium necrophorum; experiment: MIC, agar dilution, nutrient agar medium; assay type: cell-based
[37] = system: Lactobacillus acidophilus; experiment: MIC, agar dilution, nutrient agar medium; assay type: cell-based
mouse = experiment: acute toxicity to mouse, intraperitoneal; assay type: in vivo; details: intraperitoneally, 100 mg/kg
[38] = system: various gram-positive and gram-negative bacteria; experiment: antibacterial activity (general statement); assay type: cell-based
[39] = solubility in organic solvents; assay type: physicochemical

Compound `[C-]#[N+]C12CC3(/C=C/C(=O)O)OC3C1O2` (stereo not shown) [Antibiotic No. 2188, 3-(6-isocyano-3,7-dioxatricyclo[4.1.0.0^2,4]hept-4-yl)propenoic acid] has an MIC [1] of 6.25 µg/mL (≈ 32.4 µM), an MIC [2] of 12.5 µg/mL (≈ 64.7 µM) and an MIC [3] of 6.25 µg/mL (≈ 32.4 µM). It also gave an MIC [4] of 6.25 µg/mL (≈ 32.4 µM), an MIC [5] of 12.5 µg/mL (≈ 64.7 µM) and an MIC [6] of 6.25 µg/mL (≈ 32.4 µM). The MIC [7] was 6.25 µg/mL (≈ 32.4 µM), the MIC [8] was 12.5 µg/mL (≈ 64.7 µM) and the MIC [9] was 12.5 µg/mL (≈ 64.7 µM). The MIC [10] was 50 µg/mL (≈ 259 µM), the MIC [11] was 12.5 µg/mL (≈ 64.7 µM) and the MIC [12] was 12.5 µg/mL (≈ 64.7 µM). The MIC [13] was 50 µg/mL (≈ 259 µM), the MIC [14] was 12.5 µg/mL (≈ 64.7 µM) and the MIC [15] was 50 µg/mL (≈ 259 µM). The MIC [16] was 100 µg/mL (≈ 518 µM), the MIC [17] was 12.5 µg/mL (≈ 64.7 µM) and the MIC (Pseudomonas putida T-2) was 6.25 µg/mL (≈ 32.4 µM). The MIC (Pseudomonas ovalis) was > 100 µg/mL, the MIC [18] was 1.6 µg/mL (≈ 8.28 µM) and the MIC [19] was 3.1 µg/mL (≈ 16 µM). The MIC [20] was 12.5 µg/mL (≈ 64.7 µM), the MIC (Salmonella anatum 1) was 12.5 µg/mL (≈ 64.7 µM) and the MIC [21] was 50 µg/mL (≈ 259 µM). The MIC (Erwinia aroidae IAM 1068) was 25 µg/mL (≈ 129 µM), the MIC [22] was 50 µg/mL (≈ 259 µM) and the MIC [23] was > 100 µg/mL. For the same compound, the MIC [24] was > 200 µg/mL, the MIC [25] was 100 µg/mL (≈ 518 µM) and the MIC [26] was > 200 µg/mL. The MIC [27] was 200 µg/mL (≈ 1040 µM), the MIC (Saccharomyces cerevisiae) was > 200 µg/mL and the MIC [28] was > 200 µg/mL. It also gave an MIC [29] of 50 µg/mL (≈ 259 µM), an MIC [30] of 100 µg/mL (≈ 518 µM) and an MIC [31] of 50 µg/mL (≈ 259 µM). For the same compound, the MIC [32] was 100 µg/mL (≈ 518 µM), the MIC (Bacteroides fragilis) was 50 µg/mL (≈ 259 µM) and the MIC (Eubacterium aerofaciens) was > 200 µg/mL. It also gave an MIC (Peptococcus aerogenes) of 25 µg/mL (≈ 129 µM), an MIC [33] of 25 µg/mL (≈ 129 µM) and an MIC [34] of 50 µg/mL (≈ 259 µM). For the same compound, the MIC [35] was 200 µg/mL (≈ 1040 µM), the MIC [36] was 50 µg/mL (≈ 259 µM) and the MIC [37] was 200 µg/mL (≈ 1040 µM). For the same compound, the acute toxicity (mouse) was “no acute toxicity”, the antibacterial activity [38] was “shows an antibacterial activity against various gram-positive and gram-negative bacteria” and the solubility ([39]; hexane and petroleum ether) was “insoluble”. For the same compound, the solubility ([39]; methanol, ethanol, acetone, ethyl acetate, chloroform and benzene) was “soluble”.
